Experimental data published in PMC4447944 (The Journal of Biological Chemistry, 2015).

Assays:
[1] = test system: mono-methyl-Lys370 p53; assay: Meso Scale Discovery sandwich ELISA mono-methyl-Lys370 p53/total p53, KYSE-150 cells stably expressing FLAG-SMYD2; format: cell-based; conditions: Homo sapiens; KYSE-150 stably expressing SMYD2, sandwich ELISA, 24 h
Protocol: Cell lysates were subject to 10% SDS-PAGE and transferred to a PVDF membrane. Each membrane was blocked in Odyssey Blocking Buffer (LI-COR Biosciences) and incubated with monoclonal anti-p53 (D01) antibody (Abcam, ab1101) or rabbit anti-p53 Lys^370me1 antibody (a kind gift from Dr. Shelley Berger) followed by detection with IRDye®680RD goat anti-mouse IgG (LI-COR Biosciences) and IRDye800CW goat anti-rabbit IgG (LI-COR Biosciences) on the Odyssey Imager (LI-COR Biosciences). […] 4–8 h later, cells were treated with 0–25 μM compound for 15 h. […] 24 h later, cells were lysed with 200 μl of MSD Tris Lysis Buffer^TM (Meso Scale Discovery). A MULTI-ARRAY^TM 96-well plate (Meso Scale Discovery, catalog number L15XA-3) was precoated with 2 μg/ml custom-made methyl-p53 antibody (Lampire) in PBS overnight at 4 °C. 150 μl/well MSD Blocking Solution A^TM (final concentration of 3%) was added followed by shaking at room temperature for 1 h. The plate was washed three times with 1× MSD Tris Wash Buffer^TM (Meso Scale Discovery). 0.5 μg of cell lysate in 25 μl/well MSD Tris Lysis Buffer was added, followed by shaking overnight at 4 °C. […] Following a final wash three times with 1× MSD Tris Wash Buffer, 150 μl/well 1× MSD Read Buffer^TM (Meso Scale Discovery) was added, and plates were read on an MSD SECTOR^TM Imager 6000 instrument (Meso Scale Discovery).

[2] = target: T1, hABL1(H396P) (Homo sapiens, UniProt P00519, H396P); assay: KINOMEscan; format: binding
T1 construct: purchased DiscoverX (KINOMEscan platform)

[3] = target: T2, hABL1(pH396P) (Homo sapiens, UniProt P00519, H396P); assay: KINOMEscan; format: binding
T2 construct: purchased DiscoverX (KINOMEscan platform)

[4] = target: T3, hABL1(T315I) (Homo sapiens, UniProt P00519, T315I); assay: KINOMEscan; format: binding
T3 construct: purchased DiscoverX (KINOMEscan platform)

[5] = target: T4, hACVR1 (Homo sapiens, UniProt Q04771); assay: KINOMEscan; format: binding
T4 construct: purchased DiscoverX (KINOMEscan platform)

[6] = target: T5, hBMPR2 (Homo sapiens, UniProt Q13873); assay: KINOMEscan; format: binding
T5 construct: purchased DiscoverX

[7] = target: T6, hBRAF (Homo sapiens, UniProt P15056); assay: KINOMEscan; format: binding
T6 construct: purchased DiscoverX
T6 sequence (P15056 whole entry): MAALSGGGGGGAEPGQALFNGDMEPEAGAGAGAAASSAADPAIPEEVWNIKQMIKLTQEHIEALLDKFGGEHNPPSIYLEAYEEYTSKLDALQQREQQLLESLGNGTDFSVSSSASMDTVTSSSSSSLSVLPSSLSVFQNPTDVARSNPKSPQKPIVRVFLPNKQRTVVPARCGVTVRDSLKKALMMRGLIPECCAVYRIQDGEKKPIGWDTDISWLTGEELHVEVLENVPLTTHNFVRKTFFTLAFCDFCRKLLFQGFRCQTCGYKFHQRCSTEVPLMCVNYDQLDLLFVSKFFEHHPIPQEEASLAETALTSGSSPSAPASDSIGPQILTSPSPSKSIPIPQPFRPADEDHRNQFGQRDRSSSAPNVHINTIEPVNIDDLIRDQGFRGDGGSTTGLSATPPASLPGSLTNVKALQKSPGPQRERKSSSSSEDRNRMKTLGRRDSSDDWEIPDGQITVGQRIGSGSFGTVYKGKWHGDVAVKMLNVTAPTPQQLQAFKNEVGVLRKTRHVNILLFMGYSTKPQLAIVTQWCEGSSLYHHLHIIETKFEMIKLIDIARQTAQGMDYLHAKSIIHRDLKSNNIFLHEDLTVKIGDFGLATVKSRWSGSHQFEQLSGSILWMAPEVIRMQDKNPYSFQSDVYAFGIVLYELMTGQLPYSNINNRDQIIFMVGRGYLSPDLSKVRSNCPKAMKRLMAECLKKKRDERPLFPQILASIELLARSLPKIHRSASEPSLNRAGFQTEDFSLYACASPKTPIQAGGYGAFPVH

[8] = target: T7, hCAMK4 (Homo sapiens, UniProt Q16566); assay: KINOMEscan; format: binding
T7 construct: purchased DiscoverX

[9] = target: T8, hCLK3 (Homo sapiens, UniProt P49761); assay: KINOMEscan; format: binding
T8 construct: purchased DiscoverX

[10] = target: T9, hCSNK1G2 (Homo sapiens, UniProt P78368); assay: KINOMEscan; format: binding
T9 construct: purchased DiscoverX (KINOMEscan platform)
T9 sequence (P78368 whole entry): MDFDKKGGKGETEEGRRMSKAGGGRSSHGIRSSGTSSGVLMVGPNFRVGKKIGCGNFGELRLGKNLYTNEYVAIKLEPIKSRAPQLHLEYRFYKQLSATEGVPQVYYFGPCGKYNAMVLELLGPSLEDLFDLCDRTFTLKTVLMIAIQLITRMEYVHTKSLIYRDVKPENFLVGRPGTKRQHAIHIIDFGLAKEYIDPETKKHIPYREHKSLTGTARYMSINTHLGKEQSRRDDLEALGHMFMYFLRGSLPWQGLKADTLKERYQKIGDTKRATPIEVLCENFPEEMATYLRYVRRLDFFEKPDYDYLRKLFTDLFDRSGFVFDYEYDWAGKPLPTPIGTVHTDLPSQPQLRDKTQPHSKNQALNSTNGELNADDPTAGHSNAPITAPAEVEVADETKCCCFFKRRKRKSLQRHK

[11] = target: T10, hEIF2AK1 (Homo sapiens, UniProt Q9BQI3); assay: KINOMEscan; format: binding
T10 construct: purchased DiscoverX
T10 sequence (Q9BQI3 whole entry): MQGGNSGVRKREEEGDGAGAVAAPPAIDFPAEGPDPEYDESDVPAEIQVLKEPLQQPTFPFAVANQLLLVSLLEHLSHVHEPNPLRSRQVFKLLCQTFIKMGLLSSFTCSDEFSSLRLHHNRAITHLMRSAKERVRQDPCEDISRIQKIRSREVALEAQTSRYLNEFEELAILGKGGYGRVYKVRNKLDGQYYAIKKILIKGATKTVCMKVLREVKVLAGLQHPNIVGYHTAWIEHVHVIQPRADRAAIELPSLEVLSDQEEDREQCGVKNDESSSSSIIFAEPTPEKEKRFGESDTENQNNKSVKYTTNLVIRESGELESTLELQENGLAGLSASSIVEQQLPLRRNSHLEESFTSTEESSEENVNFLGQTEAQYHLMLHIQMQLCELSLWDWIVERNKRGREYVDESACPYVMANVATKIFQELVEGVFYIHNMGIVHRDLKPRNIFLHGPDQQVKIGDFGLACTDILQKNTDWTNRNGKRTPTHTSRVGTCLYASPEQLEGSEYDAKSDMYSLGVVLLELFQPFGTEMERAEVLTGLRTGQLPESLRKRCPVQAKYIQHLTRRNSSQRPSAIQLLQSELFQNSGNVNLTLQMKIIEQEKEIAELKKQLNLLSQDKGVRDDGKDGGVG

[12] = target: T11, hERK3 (Homo sapiens, UniProt Q16659); assay: KINOMEscan; format: binding
T11 construct: purchased DiscoverX

[13] = target: T12, hFGFR4 (Homo sapiens, UniProt P22455); assay: KINOMEscan; format: binding
T12 construct: purchased DiscoverX

[14] = target: T13, hGAK (Homo sapiens, UniProt O14976); assay: KINOMEscan; format: binding
T13 construct: purchased DiscoverX
T13 sequence (O14976 whole entry): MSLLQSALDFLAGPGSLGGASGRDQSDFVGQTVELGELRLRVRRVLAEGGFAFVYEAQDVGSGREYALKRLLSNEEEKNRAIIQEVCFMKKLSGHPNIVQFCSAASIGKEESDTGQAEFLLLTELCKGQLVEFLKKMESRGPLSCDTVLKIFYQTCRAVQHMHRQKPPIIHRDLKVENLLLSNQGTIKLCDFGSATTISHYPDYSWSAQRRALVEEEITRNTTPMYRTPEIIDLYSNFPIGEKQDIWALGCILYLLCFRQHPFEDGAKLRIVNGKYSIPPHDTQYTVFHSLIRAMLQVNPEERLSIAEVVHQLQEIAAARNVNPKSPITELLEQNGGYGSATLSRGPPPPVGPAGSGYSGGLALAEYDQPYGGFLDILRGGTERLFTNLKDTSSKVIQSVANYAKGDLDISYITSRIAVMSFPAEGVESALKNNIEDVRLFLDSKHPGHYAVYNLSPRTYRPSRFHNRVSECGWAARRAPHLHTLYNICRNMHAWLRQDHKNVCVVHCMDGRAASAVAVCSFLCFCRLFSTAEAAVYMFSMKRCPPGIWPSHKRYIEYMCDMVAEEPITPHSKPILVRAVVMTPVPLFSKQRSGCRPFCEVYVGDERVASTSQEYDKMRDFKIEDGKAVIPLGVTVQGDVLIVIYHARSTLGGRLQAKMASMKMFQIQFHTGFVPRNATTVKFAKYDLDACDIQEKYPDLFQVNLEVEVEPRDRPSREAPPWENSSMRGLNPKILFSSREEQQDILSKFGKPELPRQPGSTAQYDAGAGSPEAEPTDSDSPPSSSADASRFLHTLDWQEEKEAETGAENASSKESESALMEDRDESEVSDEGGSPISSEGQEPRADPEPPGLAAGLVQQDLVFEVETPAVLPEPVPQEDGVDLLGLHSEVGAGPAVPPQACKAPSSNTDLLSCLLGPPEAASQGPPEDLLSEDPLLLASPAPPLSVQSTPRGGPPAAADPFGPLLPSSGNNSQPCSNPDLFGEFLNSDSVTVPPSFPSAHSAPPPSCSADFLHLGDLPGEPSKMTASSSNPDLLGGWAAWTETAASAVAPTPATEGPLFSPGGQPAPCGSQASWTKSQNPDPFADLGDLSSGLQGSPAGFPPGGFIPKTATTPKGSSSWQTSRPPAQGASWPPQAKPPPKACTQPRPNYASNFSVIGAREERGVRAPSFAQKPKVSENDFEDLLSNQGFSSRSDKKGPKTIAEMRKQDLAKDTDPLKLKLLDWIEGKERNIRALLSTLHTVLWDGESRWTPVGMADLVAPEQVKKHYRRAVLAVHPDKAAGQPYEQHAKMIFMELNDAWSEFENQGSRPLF

[15] = target: T14, hIKK-epsilon (Homo sapiens, UniProt Q14164); assay: KINOMEscan; format: binding
T14 construct: purchased DiscoverX (KINOMEscan panel)

[16] = target: T15, hKIT(D816H) (Homo sapiens, UniProt P10721, D816H); assay: KINOMEscan; format: binding
T15 construct: purchased DiscoverX (KINOMEscan panel)

[17] = target: T16, hKIT(D816V) (Homo sapiens, UniProt P10721, D816V); assay: KINOMEscan; format: binding
T16 construct: purchased DiscoverX (KINOMEscan panel)

[18] = target: T17, hMAST1 (Homo sapiens, UniProt Q9Y2H9); assay: KINOMEscan; format: binding
T17 construct: purchased DiscoverX

[19] = target: T18, hMET(Y1235D) (Homo sapiens, UniProt P08581, Y1235D); assay: KINOMEscan; format: binding
T18 construct: purchased DiscoverX

[20] = target: T19, hRAF1 (Homo sapiens, UniProt P04049); assay: KINOMEscan; format: binding
T19 construct: purchased DiscoverX (KINOMEscan platform)

[21] = target: T20, hRSK3(Kin.Dom.1-N-term) (Homo sapiens, UniProt Q15349); assay: KINOMEscan; format: binding
T20 construct: hRSK3(Kin.Dom.1-N-term); purchased DiscoverX (KINOMEscan platform)
T20 sequence (Q15349 59-318 limits assumed): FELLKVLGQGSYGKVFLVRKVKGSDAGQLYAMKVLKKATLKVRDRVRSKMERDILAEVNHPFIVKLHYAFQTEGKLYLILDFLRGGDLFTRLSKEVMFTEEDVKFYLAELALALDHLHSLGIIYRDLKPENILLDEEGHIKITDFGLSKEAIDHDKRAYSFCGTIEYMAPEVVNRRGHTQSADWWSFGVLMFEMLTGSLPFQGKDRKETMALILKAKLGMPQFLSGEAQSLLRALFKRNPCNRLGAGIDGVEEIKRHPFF

[22] = target: T21, hSGK2 (Homo sapiens, UniProt Q9HBY8); assay: KINOMEscan; format: binding
T21 construct: purchased DiscoverX (KINOMEscan platform)

[23] = target: T22, hSIK (Homo sapiens, UniProt P57059); assay: KINOMEscan; format: binding
T22 construct: purchased DiscoverX (KINOMEscan platform)

[24] = target: T23, hTEC (Homo sapiens, UniProt P42680); assay: KINOMEscan; format: binding
T23 construct: purchased DiscoverX

[25] = target: T24, hTIE1 (Homo sapiens, UniProt P35590); assay: KINOMEscan; format: binding
T24 construct: purchased DiscoverX

[26] = target: T25, hTNK1 (Homo sapiens, UniProt Q13470); assay: KINOMEscan; format: binding
T25 construct: purchased DiscoverX

[27] = target: T26, hTNNI3K (Homo sapiens, UniProt Q59H18); assay: KINOMEscan; format: binding
T26 construct: purchased DiscoverX
T26 sequence (Q59H18 whole entry): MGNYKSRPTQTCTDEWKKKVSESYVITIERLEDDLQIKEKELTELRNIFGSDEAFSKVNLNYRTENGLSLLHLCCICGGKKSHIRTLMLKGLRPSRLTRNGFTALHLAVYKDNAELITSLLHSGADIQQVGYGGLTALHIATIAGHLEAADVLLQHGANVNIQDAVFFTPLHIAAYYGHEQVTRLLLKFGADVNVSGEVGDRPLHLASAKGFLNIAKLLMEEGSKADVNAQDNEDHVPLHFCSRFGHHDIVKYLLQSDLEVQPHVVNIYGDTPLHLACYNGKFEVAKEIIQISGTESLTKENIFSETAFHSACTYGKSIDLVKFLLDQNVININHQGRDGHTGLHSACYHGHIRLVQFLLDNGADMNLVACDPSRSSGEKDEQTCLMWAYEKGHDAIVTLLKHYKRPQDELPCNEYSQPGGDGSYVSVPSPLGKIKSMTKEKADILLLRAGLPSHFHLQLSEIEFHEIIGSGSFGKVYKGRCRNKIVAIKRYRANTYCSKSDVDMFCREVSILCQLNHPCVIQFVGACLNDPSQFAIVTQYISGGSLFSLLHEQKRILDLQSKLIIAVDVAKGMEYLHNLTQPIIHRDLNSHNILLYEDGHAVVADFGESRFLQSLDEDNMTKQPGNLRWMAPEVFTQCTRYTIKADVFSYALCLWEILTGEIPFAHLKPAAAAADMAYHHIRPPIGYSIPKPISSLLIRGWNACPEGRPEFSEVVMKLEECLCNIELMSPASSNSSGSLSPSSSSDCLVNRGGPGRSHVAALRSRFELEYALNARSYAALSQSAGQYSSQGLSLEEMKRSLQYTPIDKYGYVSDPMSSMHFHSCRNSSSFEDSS

[28] = target: T27, hWEE1 (Homo sapiens, UniProt P30291); assay: KINOMEscan; format: binding
T27 construct: purchased DiscoverX

[29] = target: T28, hRARβ (Homo sapiens, UniProt P10826); assay: Nuclear hormone receptor assay (Eurofins-CEREP); conditions: read-out: Relative IC50
T28 construct: Eurofins-CEREP

[30] = target: T29, hTRα1 (Homo sapiens, UniProt P10827); assay: Nuclear hormone receptor assay (Eurofins-CEREP); conditions: read-out: Relative IC50
T29 construct: Eurofins-CEREP
T29 sequence (P10827 1-410 isoform P10827-2): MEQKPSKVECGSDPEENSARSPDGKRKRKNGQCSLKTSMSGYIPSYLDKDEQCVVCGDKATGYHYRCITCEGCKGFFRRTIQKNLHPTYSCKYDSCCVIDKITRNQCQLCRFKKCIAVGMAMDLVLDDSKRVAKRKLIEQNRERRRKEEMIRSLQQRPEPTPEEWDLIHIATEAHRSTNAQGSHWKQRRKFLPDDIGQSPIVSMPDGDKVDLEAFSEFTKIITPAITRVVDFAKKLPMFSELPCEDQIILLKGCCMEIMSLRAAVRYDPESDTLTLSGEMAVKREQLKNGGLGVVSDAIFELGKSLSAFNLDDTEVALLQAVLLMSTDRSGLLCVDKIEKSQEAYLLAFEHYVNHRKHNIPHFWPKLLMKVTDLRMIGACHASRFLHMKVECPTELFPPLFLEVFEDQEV

[31] = target: hADRβ2 (Homo sapiens, UniProt P07550); assay: cAMP Potentiation (Eurofins-CEREP); conditions: @ 10 μM
hADRβ2, sequence (P07550 whole entry): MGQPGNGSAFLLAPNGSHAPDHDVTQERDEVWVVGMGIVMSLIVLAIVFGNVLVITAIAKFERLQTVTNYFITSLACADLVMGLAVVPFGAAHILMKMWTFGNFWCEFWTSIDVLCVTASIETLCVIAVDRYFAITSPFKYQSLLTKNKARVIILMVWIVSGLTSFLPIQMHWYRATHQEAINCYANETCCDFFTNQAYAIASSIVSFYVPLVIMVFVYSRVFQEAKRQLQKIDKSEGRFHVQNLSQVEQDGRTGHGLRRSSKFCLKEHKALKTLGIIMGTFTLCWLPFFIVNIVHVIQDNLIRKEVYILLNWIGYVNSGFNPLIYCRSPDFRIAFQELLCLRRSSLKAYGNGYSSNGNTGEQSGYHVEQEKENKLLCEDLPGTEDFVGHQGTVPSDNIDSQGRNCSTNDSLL

Compound: Cc1cn(CCN2CCN(c3ccccc3-c3cc(C#N)cc(C(=O)NCCCN4CCCC4)c3)CC2)c2ccccc12 [LLY-507, 3-cyano-5-{2-[4-[2-(3-methylindol-1-yl)ethyl]piperazin-1-yl]-phenyl}-N-[(3-pyrrolidin-1-yl)propyl]benzamide]
- IC50 [1]: 0.6 µM
- IC50 [2]: > 20 µM
- IC50 [3]: > 20 µM
- IC50 [4]: > 20 µM
- IC50 [5]: > 20 µM
- IC50 [6]: > 20 µM
- IC50 [7]: > 20 µM
- IC50 [8]: > 20 µM
- IC50 [9]: > 20 µM
- IC50 [10]: > 20 µM
- IC50 [11]: > 20 µM
- IC50 [12]: > 20 µM
- IC50 [13]: > 20 µM
- IC50 [14]: > 20 µM
- IC50 [15]: > 20 µM
- IC50 [16]: > 20 µM
- IC50 [17]: > 20 µM
- IC50 [18]: > 20 µM
- IC50 [19]: > 20 µM
- IC50 [20]: > 20 µM
- IC50 [21]: > 20 µM
- IC50 [22]: > 20 µM
- IC50 [23]: > 20 µM
- IC50 [24]: > 20 µM
- IC50 [25]: > 20 µM
- IC50 [26]: > 20 µM
- IC50 [27]: > 20 µM
- IC50 [28]: > 20 µM
- IC50 [29]: > 10 µM
- IC50 [30]: > 10 µM
- % Effect, Potentiation [31]: -27.2%
